In assay [1] the test system is triple negative breast cancer cells (BT-549). The assay can be described thus: SVV infection, replication and killing of drug-treated BT-549 cells. Conditions: FIG. 2. It is filed as cell-based. From the text: (§1) In certain instances, infection with Seneca Valley Virus can be toxic to triple negative breast cancer cell lines. In these cases, it is necessary to reduce innate antiviral responses through the use of certain approved pharmaceutical compounds (see FIG. 1, FIG. 2 and FIG. 5).

Assay [2] concerns HCT-116 cells (Colorectal cancer cells). Kind of assay: SVV mediated killing of drug-pretreated HCT-116 cells. The class given is cell-based, human. Conditions: HCT-116 cells pretreated for 24 hours with compound, FIG. 4. As for the experimental part: HCT-116 cells (Colorectal cancer cells) were pretreated for 24 hours in pharmaceutical compounds to disrupt innate antiviral responses to allow increased viral mediated killing.

The test system of assay [3] is U2OS cells (osteosarcoma). Kind of assay: SVV mediated killing of drug-pretreated U2OS cells. As to conditions: U2OS cells pretreated for 24 hours with compound, FIG. 3. It is filed as cell-based. The method, then: U2OS cells (osteosarcoma) were pretreated for 24 hours in pharmaceutical compounds to disrupt innate antiviral responses to allow increased viral mediated killing.

In assay [4] the test system is HTB-126 cells (triple negative breast cancer, TNBC). The assay can be described thus: Seneca Valley Virus (SVV) mediated killing of drug-pretreated HTB-126 cells. The class given is cell-based.
From the text: Standard deviations of replicates are presented as error bars (VP/cell with 1 PFU or TCID50 unit per 100 VPs).
as §1

Counter-ions that a name gives are not always drawn.

As to `O=C(CCCCCCC(=O)Nc1ccccc1)NO` [Vorinostat], the “susceptibility to virus mediated killing by SVV” value in assay [1] was “modified and favored the susceptibility to virus mediated killing by SVV”. In addition, the “Seneca Valley Virus mediated cell killing” value in assay [2] was “increase in cell killing was mainly caused by MAC inhibitors”; in assay [2] (listed as vorinostat) it was “increased Seneca Valley Virus mediated cell killing”.
On to `COC(=O)/C=C/C(=O)OC` [Dimethyl fumarate, dimethyl fumarate], for which the “Seneca Valley Virus mediated cell killing” value is given as “increased Seneca Valley Virus mediated cell killing” in assay [3], “mainly caused by MAC inhibitors (Panobinostat or Vorinostat) instead of the JAK inhibitors” in assay [2] and “smaller effect” in assay [2] (listed as dimethyl fumarate).
In the case of `C[C@@H]1CCN(C(=O)CC#N)C[C@@H]1N(C)c1ncnc2[nH]ccc12` [Tofacitinib], in assay [4] (FIG. 5, TNBC cell lines, 1PFU/cell of SVV and 0.8 uM of Tofacintinib), the “enhancement of SVV replication and cell death” value is “substantial enhancement of SVV replication in TNBC cell lines and cell death”. In addition, the “susceptibility to virus mediated killing by SVV” value in assay [4] (HTB-126 cells, FIG. 1 (pretreated 24 hours in 12.5 micromolar tofacitinib, then 50 VP of SVV/cell) and FIG. 5) was “modified and favored the susceptibility to virus mediated killing by SVV”; in assay [1] it was “modified and favored the susceptibility to virus mediated killing by SVV”. The “Seneca Valley Virus mediated cell killing” value in assay [3] is listed as “augmented SVV mediated cell killing”; in assay [3] (listed as tofacitinib), “increased Seneca Valley Virus mediated cell killing”; in assay [2], “mainly caused by MAC inhibitors (Panobinostat or Vorinostat) instead of the JAK inhibitors”; in assay [2] (listed as tofacitnib), “smaller effect”.

These data come from US20220202884A1 (SENECA THERAPEUTICS, INC., priority 2019, published 2022).
